According to patent US12173018B2, “Penicillin-binding protein inhibitors” (priority 2018, dated 2024):
Like-named read-outs stand apart in the source and are kept apart here.

How the values were obtained:
K. pneumoniae 848844 = experiment: microbe, parasite or virus in culture; format: cell-based, Klebsiella pneumoniae; settings: Klebsiella pneumoniae; K. pneumoniae 848844 producing SHV-11 and KPC-2; read-out: MIC K. pneumoniae 848844
Protocol: (§1) To determine the ability of test compounds to potentiate the inhibition of the growth of bacterial strains, classic cell based broth microdilution minimum inhibitory concentration (MIC) assays were employed. MIC assays are performed according to CLSI methods except where otherwise noted (CLSI, 2011 and CLSI, 2009). The reference type strain E. coli ATCC 25922, the wild-type parent strain E. coli AG100, the hyper-permeable E. coli 901C and E. coli D22 and the E. coli AG100A strain lacking the acrAB efflux pump encoding genes were used to determine the ability of the PBP inhibitors to penetrate the outer membrane of gram-negative bacteria and inhibit bacterial growth. […] The P. aeruginosa PAO1, P. aeruginosa ATCC 27853 and A. baumannii ATCC 19606, along with the hyper-permeable P. aeruginosa ATCC 35151 and an engineered efflux pump-compromised strain of P. aeruginosa (ΔmexAB-oprM) were used to determine the ability of PBP inhibitors to penetrate the outer membrane of P. aeruginosa and A. baumannii and assess antibacterial activity against these important gram-negative organisms.
(§2) Briefly, cryo-preserved bacterial cultures of challenge strains are streaked for isolation on appropriate agar medium, in this case Mueller Hinton II agar. Following incubation to allow growth of the colonies, plates are sealed with parafilm and stored refrigerated for up to two weeks. For preparation of assay inoculum and to ensure low variability, at least 5 colonies are picked from the agar plates with an inoculating loop and aseptically transferred to a culture tube containing 3 mL of Mueller-Hinton Broth (supplemented with divalent cations to required levels based on Manufacturers' certification). The broth culture is grown for 3-5 hours at 37° C. with shaking at 200 rpm. Meanwhile, 2-fold serial dilutions of test compounds are conducted in a 96 well plate with a final volume of 75 μL per well at 2-fold the final desired concentration. After the dilution plates are set up the growing cultures are then diluted in a cuvette containing MH II broth and the optical density is measured at 600 nm. The Inoculum is diluted such that 75 μL of this culture in Mueller-Hinton Broth results in a starting bacterial concentration of 5×10^5 CFU/mL when added to the dilution plates. The plates are incubated for 16-20 hours at 37° C. The MIC values are read visually as the lowest concentration well with no bacterial growth.

E. coli ATCC 25922 = experiment: Broth microdilution MIC, E. coli ATCC 25922; format: cell-based; settings: Escherichia coli
Protocol: as §1, §2

E. coli AG100 = experiment: Broth microdilution MIC, E. coli AG100 (wild-type parent); format: cell-based; settings: Escherichia coli; wild-type parent E. coli AG100, broth microdilution; read-out: MIC E. coli AG100
Protocol: To determine the ability of test compounds to potentiate the inhibition of the growth of bacterial strains, classic cell based broth microdilution minimum inhibitory concentration (MIC) assays were employed.
as §2

E. coli PBP3 = E. coli PBP3 (Escherichia coli (strain K12), UniProt P0AD68); experiment: E. coli PBP3 Bocillin-FL fluorescence polarization competition binding assay
Description: To determine the ability of boronic acid-based test PBP inhibitors to bind Penicillin Binding Proteins (PBPs), Bocillin-FL (fluorescently-labeled penicillin V; ThermoFisher Scientific) was used in a fluorescence polarization (FP) competition binding assay to assess inhibitor binding to PBP2, PBP3 or PBP4 from Escherichia coli. PBPs were cloned and purified as described previously (King, D. T, et al., ACS Infectious Diseases 2015, 1, 175-184). To establish assay conditions for competition binding, an enzyme titration/saturation binding experiment was initially performed. Bocillin-FL was prepared at 0.2 μM in a buffer comprised of 50 mM Hepes (pH 8.0), 300 mM NaCl and 5% (v/v) glycerol. Saturation binding was performed by mixing 40 μl of PBP solutions ranging in concentrations from 0-12 μM with 40 μl of the 0.2 μM Bocillin-FL solution, in individual wells of a black 384-well microplate. FP was measured immediately upon mixing (Excitation, 490 nm; Emission, 520 nm; g-factor, 0.96), using a Cytation3 (BioTek) microplate reader and measured continuously for up to 120 minutes. […] Assays (80 μl final volume) were performed with PBPs at a final concentration of 1.5 μM, Bocillin-FL at 0.1 μM and beta-lactam concentrations that ranged from 0-1000 μM. […] Bocillin-FL was added and the FP immediately measured for 60 minutes (90 minutes for PBP2). The beta-lactam potency was reported as the concentration of beta-lactam required to reduce binding of Bocillin-FL by […] (EC50). […] Binding assays for boronic acid PBP inhibitors were performed in an identical fashion.

E. coli 901C = experiment: microbe, parasite or virus in culture; format: cell-based; settings: Escherichia coli; hyper-permeable E. coli 901C, broth microdilution; read-out: MIC E. coli 901C
Protocol: as §1, §2

K. pneumoniae UMM = experiment: microbe, parasite or virus in culture; format: cell-based; settings: Klebsiella pneumoniae; K. pneumoniae UMM producing SHV-5 and KPC-2; read-out: MIC K. pneumoniae UMM
Protocol: as §1, §2

K. pneumoniae SI-117 = experiment: microbe, parasite or virus in culture; format: cell-based; settings: Klebsiella pneumoniae, SI117, read-out: MIC K. pneumoniae SI-117
Protocol: as §1, §2

E. coli D22 = experiment: microbe, parasite or virus in culture; format: cell-based; settings: Escherichia coli; hyper-permeable E. coli D22, broth microdilution; read-out: MIC E. coli D22
Protocol: as §1, §2

E. coli AG100A = experiment: microbe, parasite or virus in culture; format: cell-based; settings: Escherichia coli, read-out: MIC E. coli AG100A
Protocol: as §1, §2

[1] = ATCC25922, E. coli ATCC 25922, broth microdilution, read-out: MIC E. coli 25922
[2] = fluorescence polarization competition binding with Bocillin-FL, read-out: E. coli K12 PBP3 Potency
[3] = ATCC25922, read-out: MIC E. coli 25922

E. coli PBP3, sequence (P0AD68 whole entry): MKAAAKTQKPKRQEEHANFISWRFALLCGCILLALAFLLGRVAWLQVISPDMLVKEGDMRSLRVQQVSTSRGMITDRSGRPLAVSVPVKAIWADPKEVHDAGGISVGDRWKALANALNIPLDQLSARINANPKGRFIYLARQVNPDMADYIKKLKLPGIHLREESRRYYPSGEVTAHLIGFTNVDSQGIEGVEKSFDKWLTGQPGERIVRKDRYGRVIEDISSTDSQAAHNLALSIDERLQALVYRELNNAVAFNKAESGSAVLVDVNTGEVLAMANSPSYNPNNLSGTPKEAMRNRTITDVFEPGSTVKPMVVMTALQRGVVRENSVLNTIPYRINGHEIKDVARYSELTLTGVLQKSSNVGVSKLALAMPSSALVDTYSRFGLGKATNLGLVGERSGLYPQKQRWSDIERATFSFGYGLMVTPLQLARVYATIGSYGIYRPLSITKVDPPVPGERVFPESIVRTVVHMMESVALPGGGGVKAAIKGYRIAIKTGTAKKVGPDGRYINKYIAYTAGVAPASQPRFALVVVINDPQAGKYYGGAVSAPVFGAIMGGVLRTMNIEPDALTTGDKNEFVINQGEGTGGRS

| Compound | MIC (K. pneumoniae 848844) [µg/mL] | MIC (E. coli ATCC 25922; [1]) [µg/mL] | MIC (E. coli AG100) [µg/mL] | EC50 (E. coli PBP3) [µM] | MIC (E. coli 901C) [µg/mL] | MIC (K. pneumoniae UMM) [µg/mL] | MIC (K. pneumoniae SI-117) [µg/mL] | MIC (E. coli D22) [µg/mL] | MIC (E. coli AG100A) [µg/mL] | EC50 (E. coli PBP3; [2]) [µM] | MIC (E. coli ATCC 25922; [3]) [µg/mL] |
| --- | --- | --- | --- | --- | --- | --- | --- | --- | --- | --- | --- |
| CCN1CCN(C(=O)N[C@H](C(=O)N[C@H]2Cc3cccc(C(=O)O)c3OB2O)c2ccc(S(N)(=O)=O)c(O)c2)C(=O)C1=O [Example 166, (R)-3-((S)-2-(4-ethyl-2,3-dioxopiperazine-1-carboxamido)-2-(3-hydroxy-4-sulfamoylphenyl)acetamido)-2-hydroxy-3,4-dihydro-2H-benzo[e][1,2]oxaborinine-8-carboxylic acid] | > 128 | 32 to 64 | 32 to 64 | 30 to 500 | < 0.25 | 32 to 64 | > 128 | 2 to 4 | 2 to 4 | – | – |
| CCN1CCN(C(=O)N[C@@H](C(=O)N[C@H]2Cc3cccc(C(=O)O)c3OB2O)c2ccc(S(N)(=O)=O)c(O)c2)C(=O)C1=O [Example 167, (R)-3-((R)-2-(4-ethyl-2,3-dioxopiperazine-1-carboxamido)-2-(3-hydroxy-4-sulfamoylphenyl)acetamido)-2-hydroxy-3,4-dihydro-2H-benzo[e][1,2]oxaborinine-8-carboxylic acid] | > 128 | 32 to 64 | 32 to 64 | – | < 0.25 | 32 to 64 | > 128 | 2 to 4 | 2 to 4 | < 30 | – |
| CCN1CCN(C(=O)N[C@H](C(=O)N[C@H]2Cc3cccc(C(=O)O)c3OB2O)c2ccc(S(N)(=O)=O)c(OC)c2)C(=O)C1=O [Example 168, (R)-3-((S)-2-(4-ethyl-2,3-dioxopiperazine-1-carboxamido)-2-(3-methoxy-4-sulfamoylphenyl)acetamido)-2-hydroxy-3,4-dihydro-2H-benzo[e][1,2]oxaborinine-8-carboxylic acid] | > 128 | > 128 | > 128 | 30 to 500 | 0.5 to 1 | > 128 | > 128 | 8 to 16 | 8 to 16 | – | – |
| NS(=O)(=O)c1ccc([C@H](NC(=O)N2CCN(CCBr)C(=O)C2=O)C(=O)N[C@H]2Cc3cccc(C(=O)O)c3OB2O)cc1O [Example 171, (R)-3-((S)-2-(4-(2-bromoethyl)-2,3-dioxopiperazine-1-carboxamido)-2-(3-hydroxy-4-sulfamoylphenyl)acetamido)-2-hydroxy-3,4-dihydro-2H-benzo[e][1,2]oxaborinine-8-carboxylic acid] | > 128 | – | 32 to 64 | 30 to 500 | 0.5 to 1 | 32 to 64 | > 128 | 0.5 to 1 | 8 to 16 | – | 32 to 64 |
| CCN1CCN(C(=O)N[C@H](C(=O)N[C@H]2Cc3cccc(C(=O)O)c3OB2O)c2ncc(O)cc2F)C(=O)C1=O [Example 176, (R)-3-((S)-2-(4-ethyl-2,3-dioxopiperazine-1-carboxamido)-2-(3-fluoro-5-hydroxypyridin-2-yl)acetamido)-2-hydroxy-3,4-dihydro-2H-benzo[e][1,2]oxaborinine-8-carboxylic acid] | > 128 | 32 to 64 | 32 to 64 | – | < 0.25 | 32 to 64 | 32 to 64 | 2 to 4 | 2 to 4 | < 30 | – |
| CCN1CCN(C(=O)NC(C(=O)N[C@H]2Cc3cccc(C(=O)O)c3OB2O)c2ncc(O)cc2C)C(=O)C1=O (stereo partly drawn) [Example 178, (3R)-3-(2-(4-ethyl-2,3-dioxopiperazine-1-carboxamido)-2-(5-hydroxy-3-methylpyridin-2-yl)acetamido)-2-hydroxy-3,4-dihydro-2H-benzo[e][1,2]oxaborinine-8-carboxylic acid] | > 128 | > 128 | > 128 | 30 to 500 | 8 to 16 | > 128 | > 128 | 32 to 64 | 32 to 64 | – | – |
| CCN1CCN(C(=O)NC(C(=O)N[C@H]2Cc3cc(F)c(F)c(C(=O)O)c3OB2O)c2ccc(O)c(O)c2Cl)C(=O)C1=O (stereo partly drawn) [Example 180, (3R)-3-(2-(2-chloro-3,4-dihydroxyphenyl)-2-(4-ethyl-2,3-dioxopiperazine-1-carboxamido)acetamido)-6,7-difluoro-2-hydroxy-3,4-dihydro-2H-benzo[e][1,2]oxaborinine-8-carboxylic acid] | 2 to 4 | 8 to 16 | 2 to 4 | – | 0.5 to 1 | 0.5 to 1 | 2 to 4 | 2 to 4 | 0.5 to 1 | < 30 | – |
| CCOC(=O)c1cccc2c1OB(O)[C@@H](NC(=O)C(NC(=O)N1CCN(CC)C(=O)C1=O)c1ncc(O)cc1F)C2 (stereo partly drawn) [Example 195, Ethyl (3R)-3-(2-(4-ethyl-2,3-dioxopiperazine-1-carboxamido)-2-(3-fluoro-5-hydroxypyridin-2-yl)acetamido)-2-hydroxy-3,4-dihydro-2H-benzo[e][1,2]oxaborinine-8-carboxylate] | > 128 | > 128 | > 128 | – | 32 to 64 | > 128 | > 128 | > 128 | > 128 | > 500 | – |
| CCN1CCN(C(=O)NC(C(=O)N[C@H]2Cc3cccc(C(=O)O)c3OB2O)c2ccc(OCCCN)cc2F)C(=O)C1=O (stereo partly drawn) [Example 209, (3R)-3-(2-(4-(3-aminopropoxy)-2-fluorophenyl)-2-(4-ethyl-2,3-dioxopiperazine-1-carboxamido)acetamido)-2-hydroxy-3,4-dihydro-2H-benzo[e][1,2]oxaborinine-8-carboxylic acid] | > 128 | 8 to 16 | 32 to 64 | 30 to 500 | < 0.25 | 32 to 64 | > 128 | 2 to 4 | 0.5 to 1 | – | – |
| O=C(O)c1cccc2c1OB(O)[C@@H](NC(=O)C(NC(=O)c1c[nH]ccc1=O)c1ncc(O)cc1F)C2 (stereo partly drawn) [Example 219, (3R)-3-(2-(3-fluoro-5-hydroxypyridin-2-yl)-2-(4-oxo-1,4-dihydropyridine-3-carboxamido)acetamido)-2-hydroxy-3,4-dihydro-2H-benzo[e][1,2]oxaborinine-8-carboxylic acid] | > 128 | – | > 128 | < 30 | 2 to 4 | 32 to 64 | 32 to 64 | 8 to 16 | 8 to 16 | – | > 128 |
